# Laboratory results from patent US7109338B2, “1,2-disubstituted 1,4-dihydro-4-oxoquinoline compounds” (priority 1999, dated 2006).
# Experiments:
# [1] = tested on: Poliovirus type 1 (Polio 1, Sabin); experiment: microbe, parasite or virus in culture; format: cell-based; settings: for IC50: Enterovirus C, HeLa S3, read-out: IC50 Polio 1
# [2] = tested on: echovirus type 11 (Echo 11, Gregory); experiment: In vitro anti-picornavirus activity (MTT), Echo 11; format: cell-based; settings: HeLa-S3 cells, MTT method, 37° C.; for IC50: Enterovirus B
# [3] = tested on: coxsackievirus type A7 (CA7); experiment: In vitro anti-picornavirus activity (MTT), CA7; format: cell-based; settings: HeLa-S3 cells, MTT method, 37° C.; for IC50: Coxsackievirus
# [4] = tested on: coxsackievirus type B4 (CB4,JVB); experiment: In vitro anti-picornavirus activity (MTT), CB4; format: cell-based; settings: HeLa cells, MTT method, 37° C.; for IC50: Coxsackievirus
# [5] = tested on: human rhinovirus type 1B (HRV 1B, B632); experiment: Anti-rhinovirus activity (MTT), HRV1B; format: cell-based; parameters: Anti-Rhinovirus activity, HRV1B: unit not given here; settings: for IC50: Human rhinovirus sp., read-out: IC50 HRV1B
# HRV 2 (HGP) = experiment: Anti-rhinovirus activity (MTT), HRV2; format: cell-based, human rhinovirus; parameters: Anti-Rhinovirus activity, HRV2: unit not given here; settings: for IC50: Human rhinovirus sp., read-out: IC50 HRV2
# HRV 89 (41617-Gallo) = experiment: Anti-rhinovirus activity (MTT), HRV89; format: cell-based, human rhinovirus; parameters: Anti-Rhinovirus activity, HRV89: unit not given here; settings: for IC50: Human rhinovirus sp., read-out: IC50 HRV89
# [6] = Cytotoxicity (MTT, without virus), HeLa; settings: human, HeLa cells (uninfected)
# [7] = Cytotoxicity (MTT, without virus), HeLa-S3; settings: human, HeLa-S3 cells (uninfected)
# [8] = Cytotoxicity (MTT, without virus), HeLa(Ohio); settings: human, HeLa (Ohio strain) cells (uninfected)
# HRV1A (E28) = experiment: Anti-rhinovirus activity (MTT), HRV1A; format: cell-based, human rhinovirus; parameters: Anti-Rhinovirus activity, HRV1A: unit not given here; settings: for IC50: Human rhinovirus sp., HeLa, read-out: IC50 HRV 1A
# HRV14 (1059) = experiment: Anti-rhinovirus activity (MTT), HRV14; format: cell-based, human rhinovirus; parameters: Anti-Rhinovirus activity, HRV14: unit not given here; settings: for IC50: Human rhinovirus sp., read-out: IC50 HRV 14
# HRV3(FEB) = experiment: Anti-rhinovirus spectrum (MTT), HRV3; format: cell-based, human rhinovirus; parameters: Anti-Rhinovirus activity, HRV3: unit not given here; settings: HRV3
# HRV5 = experiment: Anti-rhinovirus spectrum (MTT), HRV5; format: cell-based, human rhinovirus; parameters: Anti-Rhinovirus activity, HRV5: unit not given here; settings: HRV5
# HRV8(MRH) = experiment: Anti-rhinovirus spectrum (MTT), HRV8; format: cell-based, human rhinovirus; parameters: Anti-Rhinovirus activity, HRV8: unit not given here; settings: HRV8
# HRV10 (204-CV14) = experiment: Anti-rhinovirus spectrum (MTT), HRV10; format: cell-based, human rhinovirus; parameters: Anti-Rhinovirus activity, HRV10: unit not given here; settings: HRV10
# HRV13 (353) = experiment: Anti-rhinovirus spectrum (MTT), HRV13; format: cell-based, human rhinovirus; parameters: Anti-Rhinovirus activity, HRV13: unit not given here; settings: HRV13
# HRV16 (11757) = experiment: Anti-rhinovirus spectrum (MTT), HRV16; format: cell-based, human rhinovirus; parameters: Anti-Rhinovirus activity, HRV16: unit not given here; settings: HRV16
# HRV21 (47) = experiment: Anti-rhinovirus spectrum (MTT), HRV21; format: cell-based, human rhinovirus; parameters: Anti-Rhinovirus activity, HRV21: unit not given here; settings: HRV21
# HRV29 (5582) = experiment: Anti-rhinovirus spectrum (MTT), HRV29; format: cell-based, human rhinovirus; parameters: Anti-Rhinovirus activity, HRV29: unit not given here; settings: HRV29
# HRV31 (41F) = experiment: Anti-rhinovirus spectrum (MTT), HRV31; format: cell-based, human rhinovirus; parameters: Anti-Rhinovirus activity, HRV31: unit not given here; settings: HRV31
# HRV32 (363) = experiment: Anti-rhinovirus spectrum (MTT), HRV32; format: cell-based, human rhinovirus; parameters: Anti-Rhinovirus activity, HRV32: unit not given here; settings: HRV32
# HRV33 (1200) = experiment: Anti-rhinovirus spectrum (MTT), HRV33; format: cell-based, human rhinovirus; parameters: Anti-Rhinovirus activity, HRV33: unit not given here; settings: HRV33
# HRV36 (342H) = experiment: Anti-rhinovirus spectrum (MTT), HRV36; format: cell-based, human rhinovirus; parameters: Anti-Rhinovirus activity, HRV36: unit not given here; settings: HRV36
# HRV39 (209) = experiment: Anti-rhinovirus spectrum (MTT), HRV39; format: cell-based, human rhinovirus; parameters: Anti-Rhinovirus activity, HRV39: unit not given here; settings: HRV39
# HRV41 (56110) = experiment: Anti-rhinovirus spectrum (MTT), HRV41; format: cell-based, human rhinovirus; parameters: Anti-Rhinovirus activity, HRV41: unit not given here; settings: HRV41
# HRV50(A2#58) = experiment: Anti-rhinovirus spectrum (MTT), HRV50; format: cell-based, human rhinovirus; parameters: Anti-Rhinovirus activity, HRV50: unit not given here; settings: HRV50
# HRV61 (6669-CV39) = experiment: Anti-rhinovirus spectrum (MTT), HRV61; format: cell-based, human rhinovirus; parameters: Anti-Rhinovirus activity, HRV61: unit not given here; settings: HRV61
# [9] = tested on: clinical isolate (89229T); experiment: microbe, parasite or virus in culture; format: cell-based, human rhinovirus; parameters: Anti-Rhinovirus activity, Clinical isolated strain: unit not given here; settings: Clinical isolated strain
# HeLa cells = experiment: Cytotoxicity (MTT, without virus), HeLa; settings: HeLa, no virus, incubated for 4 days
# HeLa-S3 cells = experiment: Cytotoxicity (MTT, without virus), HeLa-S3; settings: HeLa-S3, no virus, incubated for 4 days
# HeLa (Ohio strain)cells = experiment: Cytotoxicity (MTT, without virus), HeLa(Ohio); settings: HeLa(Ohio), no virus, incubated for 4 days
# [10] = HRV1B, HeLa (Ohio strain) cells, MTT method, 33° C.
# [11] = HRV2, HeLa (Ohio strain) cells, MTT method, 33° C.
# [12] = HRV89, HeLa (Ohio strain) cells, MTT method, 33° C.
# [13] = HRV14, HeLa (Ohio strain) cells, MTT method, 33° C.
# [14] = HeLa (Ohio strain) cells, MTT method, 33° C.
structure (smiles),measurement,setting,value
"CCn1c(-c2ccc(OC)c(C)c2)c(C)c(=O)c2c(C)c(OCC(C)C)ccc21 [Compound A191, 1-Ethyl-2-(3-methyl-4-methoxyphenyl)-3,5-dimethyl-6-isobutoxy-1,4-dihydro-4-oxoquinoline]",IC50,[1],0.4 µg/mL
same,IC50,[2],0.19 µg/mL
same,IC50,[3],2.5 µg/mL
same,IC50,[4],1.6 µg/mL
same,IC50,[5]; [10],1.3 µg/mL
same,IC50,HRV 2 (HGP); [11],0.15 µg/mL
same,IC50,HRV 89 (41617-Gallo); [12],0.2 µg/mL
same,melting point,,149 °C
same,CC50 at 4 days,[6],> 4 µg/mL
same,CC50 at 4 days,[7],> 4 µg/mL
same,CC50 at 4 days,[8],> 4 µg/mL
"CCn1c(-c2ccccc2)c(C)c(=O)c2cc(C(C)C)ccc21 [Compound A37, 1-Ethyl-2-phenyl-3-methyl-6-isopropyl-1,4-dihydro-4-oxoquinoline]",IC50,[1],1.1 µg/mL
same,IC50,[2],0.91 µg/mL
same,IC50,[3],3.8 µg/mL
same,IC50,[4],6.7 µg/mL
same,IC50,[5]; [10],1 µg/mL
same,IC50,HRV 2 (HGP); [11],0.83 µg/mL
same,IC50,HRV 89 (41617-Gallo); [12],0.54 µg/mL
same,melting point,,159 to 165 °C
same,CC50 at 4 days,[6],11 µg/mL
same,CC50 at 4 days,[7],12 µg/mL
same,CC50 at 4 days,[8],11 µg/mL
"CCn1c2c(c(=O)c3cc(C(C)C)ccc31)Cc1c-2ccn1C [Compound D53, 4-Ethyl-7-isopropyl-1-methyl-4,9-dihydro-10H-pyrrolo[2′,3′:4,5]cyclopenta[1,2-b]quinolin-9-one]",IC50,[1],1.8 µg/mL
same,IC50,[2],0.68 µg/mL
same,IC50,[3],> 10 µg/mL
same,IC50,[4],> 3.3 µg/mL
same,IC50,HRV1A (E28); HRV1A,> 10 µg/mL
same,IC50,[5]; [10],1.6 µg/mL
same,IC50,HRV 2 (HGP); [11],0.91 µg/mL
same,IC50,HRV14 (1059); [13],2.3 µg/mL
same,IC50,HRV 89 (41617-Gallo); [12],1.4 µg/mL
same,melting point,,91 to 93 °C
same,CC50 at 4 days,[6],> 10 µg/mL
same,CC50 at 4 days,[7],> 10 µg/mL
same,CC50 at 4 days,[8],> 10 µg/mL
CCn1c2c(c(=O)c3cc(CC(C)C)ccc31)Cc1cc(OC)ccc1-2 [Compound B12],IC50 Polio 1,[1],0.39 µg/mL
same,IC50 Echo 11,[2],0.19 µg/mL
same,IC50 CA7,[3],2.0 µg/mL
same,IC50 CB4,[4],0.63 µg/mL
same,"Anti-Rhinovirus activity, HRV1A",HRV1A (E28); HRV1A,>2.5
same,IC50 HRV 1A,HRV1A (E28); [14],>2.5 µg/mL
same,"Anti-Rhinovirus activity, HRV1B",[5]; HRV1B,0.25
same,IC50 HRV1B,[5]; [14],0.25 µg/mL
same,"Anti-Rhinovirus activity, HRV2",HRV 2 (HGP); HRV2,0.31
same,IC50 HRV2,HRV 2 (HGP); [14],0.31 µg/mL
same,"Anti-Rhinovirus activity, HRV14",HRV14 (1059); HRV14,0.43
same,IC50 HRV 14,HRV14 (1059); [14],0.43 µg/mL
same,"Anti-Rhinovirus activity, HRV89",HRV 89 (41617-Gallo); HRV89,0.31
same,IC50 HRV89,HRV 89 (41617-Gallo); [14],0.31 µg/mL
same,"Anti-Rhinovirus activity, HRV3",HRV3(FEB),0.52
same,"Anti-Rhinovirus activity, HRV5",HRV5,0.29
same,"Anti-Rhinovirus activity, HRV8",HRV8(MRH),0.32
same,"Anti-Rhinovirus activity, HRV10",HRV10 (204-CV14),0.43
same,"Anti-Rhinovirus activity, HRV13",HRV13 (353),0.091
same,"Anti-Rhinovirus activity, HRV16",HRV16 (11757),1.4
same,"Anti-Rhinovirus activity, HRV21",HRV21 (47),0.17
same,"Anti-Rhinovirus activity, HRV29",HRV29 (5582),0.44
same,"Anti-Rhinovirus activity, HRV31",HRV31 (41F),0.11
same,"Anti-Rhinovirus activity, HRV32",HRV32 (363),0.33
same,"Anti-Rhinovirus activity, HRV33",HRV33 (1200),0.12
same,"Anti-Rhinovirus activity, HRV36",HRV36 (342H),0.21
same,"Anti-Rhinovirus activity, HRV39",HRV39 (209),0.38
same,"Anti-Rhinovirus activity, HRV41",HRV41 (56110),0.11
same,"Anti-Rhinovirus activity, HRV50",HRV50(A2#58),0.12
same,"Anti-Rhinovirus activity, HRV61",HRV61 (6669-CV39),0.31
same,"Anti-Rhinovirus activity, Clinical isolated strain",[9],0.46
same,Cytotoxicity CC50 HeLa,HeLa cells,>2.5 µg/mL
same,Cytotoxicity CC50 HeLa-S3,HeLa-S3 cells,>2.5 µg/mL
same,Cytotoxicity CC50 HeLa(Ohio),HeLa (Ohio strain)cells,>2.5 µg/mL
"CCn1c2c(c(=O)c3cc(C(C)C)ccc31)Cc1c(C)csc1-2 [Compound D52, 10-Ethyl-7-isopropyl-3-methyl-5,10-dihydro-4H-thieno[3′,2′:4,5]cyclopenta[1,2-b]quinolin-5-one]",IC50,[1],1 µg/mL
same,IC50,[2],0.55 µg/mL
same,IC50,[3],> 5 µg/mL
same,IC50,[4],3 µg/mL
same,IC50,HRV1A (E28); HRV1A,3.1 µg/mL
same,IC50,[5]; [10],0.89 µg/mL
same,IC50,HRV 2 (HGP); [11],0.86 µg/mL
same,IC50,HRV14 (1059); [13],1.1 µg/mL
same,IC50,HRV 89 (41617-Gallo); [12],0.85 µg/mL
same,melting point,,195 °C (dec.)
same,CC50 at 4 days,[6],> 5 µg/mL
same,CC50 at 4 days,[7],> 5 µg/mL
same,CC50 at 4 days,[8],> 5 µg/mL
